GI50 and TGI data for eleven molecules are collected here from PubChem BioAssay (NCI).

Common to all, as to test: NCI-60 cell line screen, 48 h
Assay [1] concerns SF-268 CNS.
In assay [2] the test system is RPMI-8226 leukemia.
Assay [3] has as its system IGROV1 ovarian.
Assay [4] concerns MOLT-4 leukemia.
The subject of assay [5] is SW-620 colon.
Assay [6] deals with RXF 393 renal.
Assay [7] has as its system LOX IMVI melanoma.
The test system of assay [8] is MALME-3M melanoma.
Assay [9] has as its system UO-31 renal.
For assay [10], the system named is NCI-H23 lung.

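Grown in 96-well plates, cells were treated for 48 hours with each compound at five concentrations. Insufficient inhibition: endpoint recorded as highest concentration tested. Here, GI50 denotes the concentration required for 50% inhibition of growth. TGI marks complete inhibition of growth.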

Turning to `OCCN1CCCN(CCCN2c3ccccc3Sc3ccc(C(F)(F)F)cc32)CC1`, the GI50 in assay [1] was 3.6 µM; in [2], 2.21 µM; in [3] it was 2.68 µM; in [4] it was 2.39 µM; in assay [5], 1.86 µM; in [6], 2.59 µM. The GI50 in assay [7] is 1.73 µM; in [8], 2.02 µM; in [9], 2.3 µM. Besides, the TGI in assay [1] was determined as 15.5 µM; in assay [2] it was 4.46 µM; in assay [3] it was 7.22 µM; in assay [4] it was 5.2 µM; in [5], 4.15 µM; in assay [6], 11.2 µM. Further, the results for the TGI in assay [7], in assay [8] and in assay [9] were 3.21 µM, 3.82 µM and 10.6 µM, respectively.
On to `O=C(NCCOC(=O)CCCCCCCCC(=O)OCCNC(=O)NC(=O)c1cn(Cc2ccccc2)c(=O)[nH]c1=O)NC(=O)c1cn(Cc2ccccc2)c(=O)[nH]c1=O`, for which the TGI in assay [1], in assay [2], in assay [3], in assay [4], in [5] and in [7] was above 100 µM in each case. The TGI in assay [9] and in assay [10] was above 100 µM each time.
As for `COc1cc2c(c(OC)c1OC)-c1ccc(SC)c(=O)cc1C(CC(=O)Oc1ccccc1F)C2` (configuration not stated), the TGI in assay [1] was above 7.5 µM; in [2], above 7.5 µM; in assay [3], above 7.5 µM; in assay [4], above 7.5 µM; in assay [5] it was above 7.5 µM; in assay [7] it was 4.28 µM. Further, the TGI in [8] is above 7.5 µM; in [9], above 7.5 µM; in assay [10], 0.0894 µM.
Consider `O=C(CC/C(CC(=O)c1ccc(Cl)cc1)=N\O)Nc1cccc(Cl)c1`, for which the TGI in assay [1], in assay [2], in assay [3], in assay [4], in assay [5] and in assay [7] was above 100 µM each time. In addition, the TGI in assay [8], in assay [9] and in assay [10] was above 100 µM throughout.
Take `Cc1ncc([N+](=O)[O-])n1CCOc1ccc(C(=O)/C=C/c2ccc(C(F)(F)F)cc2)cc1`: the GI50 in assay [1] was 2.72 µM; in [2], 1.91 µM; in [3] it was 2 µM; in assay [4] it was 2.17 µM; in [5], 1.76 µM; in assay [6], 4.54 µM. For the same molecule, the GI50 is 2.21 µM in [7] and 1.48 µM in assay [9]. Also, the TGI in assay [1] amounted to 8.49 µM; in assay [2], 4.37 µM; in [3], 4.13 µM; in assay [4] it was 6.29 µM; in assay [5], 4.03 µM; in assay [6], 17.6 µM. The TGI in [7] was 5.6 µM; in assay [9] it was 2.87 µM.
As to `O=C(NCCNC1=CC(=O)c2nc3ccccc3c3ccnc1c23)c1cnccn1`, the GI50 in assay [1] is 31 µM; in [2], 1.1 µM; in assay [3] it was 45.2 µM; in assay [4] it was 35.7 µM; in assay [5] it was 24.2 µM; in assay [7] it was 33.9 µM. Moreover, the GI50 in assay [8] was 18.2 µM; in [9], 62.4 µM; in assay [10] it was 46.4 µM. The TGI in assay [1] was above 100 µM; in assay [2], 24.3 µM; in assay [3] it was above 100 µM; in assay [4], above 100 µM; in assay [5] it was above 100 µM; in assay [7] it was above 100 µM. Moreover, the TGI in [8], in assay [9] and in assay [10] was above 100 µM each time.
For `C=C(c1ccc(C(=O)NCCCn2ccnc2)cc1)c1cc2c(cc1C)C(C)(C)CCC2(C)C`, the GI50 in [1] was 3.83 µM; in assay [3] it was 1.92 µM; in assay [4] it was 2.65 µM; in [6] it was 1.71 µM; in assay [7] it was 0.395 µM; in assay [8], 3.2 µM. Further, the GI50 is 3.93 µM in assay [9] and 3.69 µM in assay [10]. In addition, the TGI is above 100 µM in [1]; above 32 µM in assay [3]; above 100 µM in [4]; 4.71 µM in assay [6]; 4.48 µM in assay [7]; 22.4 µM in [8]. In addition, the figures for the TGI in [9] and in assay [10] were 17.7 µM and 66.5 µM, respectively.
Take `Cc1ccc(/C=C2\CCCC(C(NO)c3ccc(C)cc3)C2=NO)cc1` (configuration not stated): the TGI in [1] is 66.6 µM; in assay [2] it was 48.8 µM; in assay [3], above 100 µM; in assay [4], 42.6 µM; in assay [5] it was above 100 µM; in assay [6], 71.9 µM. Besides, the TGI in assay [8] is above 100 µM; in assay [9] it was above 100 µM; in [10], 73.2 µM.
Take `Cc1ccc(-n2cc(/C(N)=N/O)c3ccccc3c2=O)cc1`: the TGI in assay [1], in [2], in assay [3], in assay [4], in [5] and in assay [7] was above 100 µM throughout. The TGI in assay [8], in [9] and in [10] was above 100 µM in each case.
Consider `COc1cc(COC(=O)N(C)[C@@H](Cc2ccccc2)C(=O)O)c([N+](=O)[O-])cc1OC`, for which the TGI in assay [1], in assay [2], in assay [3], in [4], in assay [5] and in assay [8] was above 100 µM each time. Also, the TGI in assay [9] and in assay [10] was above 100 µM throughout.
With `C=C(/C=C/C=C(\CO)CCC=C(C)C)[C@H]1CCC2([C@H](CCCO)/C(=C(/C)C=O)CC[C@]2(C)O)[C@H]1O` (some centres not stated), the TGI in assay [2], in [3], in [4], in assay [5], in assay [7] and in assay [8] was above 100 µM each time. In addition, the TGI in [10] was above 100 µM.
